Experimental data reported in patent publication US10294202B2, “Pyrrolidinones as herbicides” (FMC Corporation, priority 2013, dated 2019).

How the values were obtained:
barley, spring = test: Test D pre-/postemergence herbicide test; format: in vivo, Hordeum vulgare; conditions: for Plant response rating: Barley, Spring, scale 0 to 100; for Plant response rating, Barley, Spring: scale 0 to 100 (0 no effect, 100 complete control)
From the text: (§1) Seeds of plant species selected from bluegrass (annual bluegrass, Poa annua), blackgrass (Alopecurus myosuroides), canarygrass (littleseed canarygrass, Phalaris minor), chickweed (common chickweed, Stellaria media), galium (catchweed bedstraw, Galium aparine), bromegrass, downy (downy bromegrass, Bromus tectorum), field poppy (Papaver rhoeas), field violet (Viola arvensis), foxtail, green (green foxtail, Setaria viridis), deadnettle (henbit deadnettle, Lamium amplexicaule), ryegrass, Italian (Italian ryegrass, Lolium multiflorum), kochia (Kochia scoparia), lambsquarters (Chenopodium album), oilseed rape (Brassica napus), pigweed (Amaranthus retroflexus), chamomile (scentless chamomile, Matricaria inodora), Russian thistle (Salsola kali), speedwell (bird's-eye speedwell, Veronica persica), barley, spring (spring barley, Hordeum vulgare), wheat, spring (spring wheat, Triticum aestivum), buckwheat, wild (wild buckwheat, Polygonum convolvulus), mustard, wild (wild mustard, Sinapis arvensis), oat, wild (wild oat, Avena fatua), radish, wild (wild radish, Raphanus raphanistrum), […]), barley, winter (winter barley, Hordeum vulgare), and wheat, winter (winter wheat, Triticum aestivum) were planted into a silt loam soil and treated preemergence with test chemicals formulated in a non-phytotoxic solvent mixture which included a surfactant. At the same time, these species were planted in pots containing Redi-Earth® planting medium (Scotts Company, 14111 Scottslawn Road, Marysville, Ohio 43041) comprising spaghnum peat moss, vermiculite, wetting agent and starter nutrients and treated with postemergence applications of the test chemicals formulated in the same manner. Plants ranged in height from 2 to 18 cm (1- to 4-leaf stage). Treated plants and controls were maintained in a controlled growth environment for 7 to 21 days after which time all species were compared to controls and visually evaluated. Plant response ratings, summarized in Table D, are based on a scale of 0 to 100 where 0 is no effect and 100 is complete control. A dash (-) response means no test result.

Russian thistle = test: Test D pre-/postemergence herbicide test; format: in vivo, Salsola kali; conditions: for Plant response rating: Postemergence, Russian Thistle, scale 0 to 100; for Plant response rating, Russian Thistle: Preemergence, scale 0 to 100 (0 no effect, 100 complete control)
From the text: as §1

morningglory = test: Test E preemergence herbicide test; format: in vivo, Ipomoea coccinea; parameters: key: 0 = no effect, 100 = complete control
From the text: (§2) Seeds of plant species selected from corn (Zea mays), soybean (Glycine max), velvetleaf (Abutilon theophrasti), lambsquarters (Chenopodium album), wild poinsettia (Euphorbia heterophylla), pigweed, palmer (palmer pigweed, Amaranthus palmeri), waterhemp (common waterhemp, Amaranthus rudis), surinam grass (Brachiaria decumbens), crabgrass, large (large crabgrass, Digitaria sanguinalis), crabgrass, Brazil (Brazilian crabgrass, Digitaria horizontalis), panicum, fall (fall panicum, Panicum dichotomiflorum), foxtail, giant (giant foxtail, Setaria faberii), foxtail, green (green foxtail, Setaria viridis), goosegrass (Eleusine indica), johnsongrass (Sorghum halepense), ragweed (common ragweed, Ambrosia elatior), barnyardgrass (Echinochloa crus-galli), sandbur (southern sandbur, Cenchrus echinatus), arrowleaf […] rhombifolia), ryegrass, Italian (Italian ryegrass, Lolium multiflorum), dayflower, VA (Virginia dayflower, Commelina virginica), field bindweed (Convolvulus arvensis), morningglory (Ipomoea coccinea), nightshade (eastern black nightshade, Solanum ptycanthum), kochia (Kochia scoparia), nutsedge, yellow (yellow nutsedge, Cyperus esculentus), cocklebur (common cocklebur, Xanthium strumarium), smartweed (ladysthumb smartweed, Polygonum Persicaria) and beggarticks (hairy beggarticks, Bidens pilosa), were planted into a silt loam soil and treated preemergence with test chemicals formulated in a non-phytotoxic solvent mixture which included a surfactant. Treated plants and controls were maintained in a greenhouse for 21 days, after which time all species were compared to controls and visually evaluated. Plant response ratings, summarized in Table E, are based on a scale of 0 to 100 where 0 is no effect and 100 is complete control. A dash (-) response means no test result.

barnyardgrass = test: Test E preemergence herbicide test; format: in vivo, Echinochloa crus-galli; parameters: key: 0 = no effect, 100 = complete control
From the text: as §2

panicum, fall = test: Test E preemergence herbicide test; format: in vivo, Panicum dichotomiflorum; parameters: key: 0 = no effect, 100 = complete control
From the text: as §2

SMILES	Plant response rating (barley, spring; Postemergence, 31 g ai/ha)	Plant response rating (barley, spring; Postemergence, 62 g ai/ha)	Plant response rating (barley, spring; Postemergence, 125 g ai/ha)	Plant response rating, Barley, Spring (barley, spring; Preemergence, 62 g ai/ha)	Plant response rating, Barley, Spring (barley, spring; Preemergence, 31 g ai/ha)	Plant response rating (barley, spring; Preemergence, 125 g ai/ha)	Plant response rating (barley, spring; Preemergence, 250 g ai/ha)	Plant response rating (Russian thistle; 31 g ai/ha)	Plant response rating (Russian thistle; 62 g ai/ha)	Plant response rating (Russian thistle; 125 g ai/ha)	Plant response rating, Russian Thistle (Russian thistle; 62 g ai/ha)	Plant response rating, Russian Thistle (Russian thistle; 125 g ai/ha)	Plant response rating, Russian Thistle (Russian thistle; 31 g ai/ha)	Plant response rating, Morningglory (morningglory; 31 g ai/ha)	Plant response rating, Morningglory (morningglory; 62 g ai/ha)	Plant response rating, Morningglory (morningglory; 125 g ai/ha)	Plant response rating, Morningglory (morningglory; 250 g ai/ha)	Plant response rating, Barnyardgrass (barnyardgrass; 31 g ai/ha)	Plant response rating, Barnyardgrass (barnyardgrass; 62 g ai/ha)	Plant response rating, Barnyardgrass (barnyardgrass; 125 g ai/ha)	further results
O=C1NCC(c2ccc(F)c(F)c2)C1C(=O)Nc1ccccc1C(F)(F)F (racemic) [Compound 6]	0	0	0	0	0	0	10	0	0	0	0	10	0								Plant response rating (barley, spring; Postemergence, 16 g ai/ha): 0; Plant response rating (barley, spring; Postemergence, 250 g ai/ha): 0; Plant response rating, Barley, Spring (barley, spring; Preemergence, 16 g ai/ha): 0; Plant response rating (Russian thistle; 16 g ai/ha): 0; Plant response rating (Russian thistle; 250 g ai/ha): 100; Plant response rating, Russian Thistle (Russian thistle; 16 g ai/ha): 0; Plant response rating, Russian Thistle (Russian thistle; 250 g ai/ha): 30
O=C1NCC(c2ccc(F)c(C(F)(F)F)c2)C1C(=O)Nc1cccc(F)c1F (racemic) [Compound 77]				5	5	25	25														
O=C1NCC(c2ccc(C(F)(F)F)cc2)C1C(=O)Nc1cccc(F)c1F (racemic) [Compound 202]	0	0	0	25	0	25	30	30	30	30	20	35	15	0	0	0	30	40	80	85	Plant response rating, Barnyardgrass (barnyardgrass; 250 g ai/ha): 98; Plant response rating, Panicum, Fall (panicum, fall; 31 g ai/ha): 0; Plant response rating, Panicum, Fall (panicum, fall; 62 g ai/ha): 0; Plant response rating, Panicum, Fall (panicum, fall; 125 g ai/ha): 50; Plant response rating, Panicum, Fall (panicum, fall; 250 g ai/ha): 85; Plant response rating (barley, spring; Postemergence, 250 g ai/ha): 5; Plant response rating (Russian thistle; 250 g ai/ha): 35; Plant response rating, Russian Thistle (Russian thistle; 250 g ai/ha): 40
O=C1NCC(c2ccc(OC(F)F)cc2)C1C(=O)Nc1cccc(F)c1F (racemic) [Compound 350]														0	0	0	0	15	40	60	Plant response rating, Barnyardgrass (barnyardgrass; 250 g ai/ha): 98; Plant response rating, Panicum, Fall (panicum, fall; 31 g ai/ha): 0; Plant response rating, Panicum, Fall (panicum, fall; 62 g ai/ha): 0; Plant response rating, Panicum, Fall (panicum, fall; 125 g ai/ha): 0; Plant response rating, Panicum, Fall (panicum, fall; 250 g ai/ha): 0
O=C1NCC(c2cc(F)c(F)cc2F)C1C(=O)Nc1cccc(F)c1F (centres unmarked) [Compound 50]	0	0	0	0	0	0		0	10	5	0	0	0								Plant response rating (barley, spring; Postemergence, 16 g ai/ha): 0; Plant response rating, Barley, Spring (barley, spring; Preemergence, 16 g ai/ha): 0; Plant response rating (Russian thistle; 16 g ai/ha): 5; Plant response rating, Russian Thistle (Russian thistle; 16 g ai/ha): 0
O=C1NC[C@H](c2cccc(C(F)(F)F)c2)[C@H]1C(=O)Nc1ccccc1F [Compound 204, (3R,4S)—N-(2-fluorophenyl)-2-oxo-4-[3-(trifluoromethyl)phenyl]-3-pyrrolidinecarboxamide]				15	0		45							0	0	20	30	20	75	98	Plant response rating, Barnyardgrass (barnyardgrass; 250 g ai/ha): 98; Plant response rating, Panicum, Fall (panicum, fall; 31 g ai/ha): 0; Plant response rating, Panicum, Fall (panicum, fall; 62 g ai/ha): 0; Plant response rating, Panicum, Fall (panicum, fall; 125 g ai/ha): 75; Plant response rating, Panicum, Fall (panicum, fall; 250 g ai/ha): 75; Plant response rating, Barley, Spring (barley, spring; Preemergence, 125 g ai/ha): 20
O=C1NC[C@H](c2cccc(C(F)(F)F)c2)[C@H]1C(=O)Nc1cccc(F)c1F [Compound 206]				35	5		55							0	0	0	0	70	75	95	Plant response rating, Barnyardgrass (barnyardgrass; 250 g ai/ha): 98; Plant response rating, Panicum, Fall (panicum, fall; 31 g ai/ha): 75; Plant response rating, Panicum, Fall (panicum, fall; 62 g ai/ha): 98; Plant response rating, Panicum, Fall (panicum, fall; 125 g ai/ha): 98; Plant response rating, Panicum, Fall (panicum, fall; 250 g ai/ha): 98; Plant response rating, Barley, Spring (barley, spring; Preemergence, 125 g ai/ha): 40
O=C1NCC(c2ccc(C(F)(F)F)cc2)C1C(=O)Nc1ccccc1F (centres unmarked) [Compound 231]	0	0	0	5	0		35	20	35	35	5	15	0								Plant response rating (barley, spring; Postemergence, 250 g ai/ha): 0; Plant response rating, Barley, Spring (barley, spring; Preemergence, 125 g ai/ha): 5; Plant response rating (Russian thistle; 250 g ai/ha): 35; Plant response rating, Russian Thistle (Russian thistle; 250 g ai/ha): 30
